The target in this experiment is T1, recombinant full-length USP7 (Homo sapiens, UniProt Q93009).
T1 construct: A 25 μl reaction volume containing recombinant full-length USP7 (62 pM)
Kind of experiment: USP7-mediated ubiquitin-rhodamine cleavage assay. To be noted: recombinant full-length USP7 62 pM; ubiquitin-rhodamine 100 nM; 30-minute pre-incubation, 1 hour reaction at room temperature; read-out: Potency (USP7 IC50). It is filed as biochemical. A digest of the protocol: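 Enzyme 62 pM; HEPES pH 7.3/150 mM NaCl/1 mM TCEP/125 μg/ml BSA; 1% DMSO; 30 min cpd preinc RT; Ub-rhodamine 100 nM, 1 h RT, dark; acetic acid stop; fluorescence; IC50 4-param fit.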

T1 sequence (Q93009 whole entry): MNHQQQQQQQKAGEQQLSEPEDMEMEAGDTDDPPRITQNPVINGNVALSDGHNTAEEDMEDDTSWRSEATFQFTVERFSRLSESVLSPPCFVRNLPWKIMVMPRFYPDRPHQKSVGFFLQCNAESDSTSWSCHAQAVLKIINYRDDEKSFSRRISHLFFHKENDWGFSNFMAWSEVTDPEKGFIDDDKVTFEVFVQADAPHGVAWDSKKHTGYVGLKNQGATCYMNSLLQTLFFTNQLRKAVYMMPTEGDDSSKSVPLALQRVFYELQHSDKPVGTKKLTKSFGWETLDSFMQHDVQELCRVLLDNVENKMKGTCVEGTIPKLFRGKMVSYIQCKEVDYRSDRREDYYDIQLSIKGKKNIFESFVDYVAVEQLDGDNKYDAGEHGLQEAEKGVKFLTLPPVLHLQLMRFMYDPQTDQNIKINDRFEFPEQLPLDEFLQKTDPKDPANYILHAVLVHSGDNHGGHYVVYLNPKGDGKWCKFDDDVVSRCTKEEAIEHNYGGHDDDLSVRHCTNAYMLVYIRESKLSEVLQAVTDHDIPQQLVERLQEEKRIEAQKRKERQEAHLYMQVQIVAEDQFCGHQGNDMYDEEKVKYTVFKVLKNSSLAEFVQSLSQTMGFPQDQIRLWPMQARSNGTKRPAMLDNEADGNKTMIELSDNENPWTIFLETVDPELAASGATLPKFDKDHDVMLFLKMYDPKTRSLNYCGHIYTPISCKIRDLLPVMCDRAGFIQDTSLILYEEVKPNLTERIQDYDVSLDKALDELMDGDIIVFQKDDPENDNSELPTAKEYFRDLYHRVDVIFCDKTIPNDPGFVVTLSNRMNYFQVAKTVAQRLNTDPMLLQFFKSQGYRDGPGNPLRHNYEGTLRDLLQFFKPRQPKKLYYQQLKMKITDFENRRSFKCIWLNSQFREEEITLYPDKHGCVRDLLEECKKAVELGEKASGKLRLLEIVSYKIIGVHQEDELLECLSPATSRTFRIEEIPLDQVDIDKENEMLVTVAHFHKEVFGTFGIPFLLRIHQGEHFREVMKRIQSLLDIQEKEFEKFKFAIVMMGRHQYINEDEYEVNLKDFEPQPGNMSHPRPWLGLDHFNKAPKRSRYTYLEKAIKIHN

With `Cc1cc(Cl)cc(-c2ccnc3cc(Cn4c(=O)ccn(C)c4=O)sc23)c1O[C@@H]1CCN(C(C)C)C[C@@H]1C` [Example 488, 3-[[7-[5-chloro-2-[[(3S,4R)-1-isopropyl-3-methyl-4-piperidyl]oxy]-3-methyl-phenyl]thieno[3,2-b]pyridin-2-yl]methyl]-1-methyl-pyrimidine-2,4-dione], the IC50 (usually the concentration needed to halve the response being measured) is under 1000 nM.

Regarding `Cc1cc(Cl)cc(-c2ncnc3cc(Cn4c(=O)ccn(C(C)C)c4=O)sc23)c1O[C@H]1CCCNC1` [Example 489, 3-[[4-[5-chloro-3-methyl-2-[[(3S)-3-piperidyl]oxy]phenyl]thieno[3,2-d]pyrimidin-6-yl]methyl]-1-isopropyl-pyrimidine-2,4-dione], the IC50 is under 1000 nM.

In the case of `Cc1cc(Cl)cc(-c2ccnc3cc(Cn4c(=O)ccn(C)c4=O)sc23)c1O[C@H]1CCN(C)C(C)(C)C1` [Example 490], the IC50 is under 1000 nM.

Take `CCN1CC[C@H](Oc2c(C)cc(Cl)cc2-c2ccnc3cc(Cn4c(=O)ccn(C)c4=O)sc23)CC1(C)C` [Example 491, 3-[[7-[5-chloro-2-[[(4S)-1-ethyl-2,2-dimethyl-4-piperidyl]oxy]-3-methyl-phenyl]thieno[3,2-b]pyridin-2-yl]methyl]-1-methyl-pyrimidine-2,4-dione; 2,2,2-trifluoroacetic acid]: the IC50 was under 1000 nM.

Take `Cc1cc(Cl)cc(-c2ccnc3cc(Cn4c(=O)ccn(C)c4=O)sc23)c1O[C@H]1CCCN(C)CC1` [Example 492, 3-[[7-[5-chloro-3-methyl-2-[(4S)-1-methylazepan-4-yl]oxy-phenyl]thieno[3,2-b]pyridin-2-yl]methyl]-1-methyl-pyrimidine-2,4-dione]: the IC50 is under 1000 nM.

For `CCN1CCC[C@H](Oc2c(C)cc(Cl)cc2-c2ccnc3cc(Cn4c(=O)ccn(C)c4=O)sc23)CC1` [Example 493, 3-[[7-[5-chloro-2-[(4S)-1-ethylazepan-4-yl]oxy-3-methyl-phenyl]thieno[3,2-b]pyridin-2-yl]methyl]-1-methyl-pyrimidine-2,4-dione], the IC50 was under 1000 nM.

For the compound `Cc1cc(Cl)cc(-c2ccnc3cc(Cn4c(=O)ccn(C)c4=O)sc23)c1O[C@H]1CCCN(CCO)CC1` [Example 494, 3-[[7-[5-chloro-2-[(4S)-1-(2-hydroxyethyl)azepan-4-yl]oxy-3-methyl-phenyl]thieno[3,2-b]pyridin-2-yl]methyl]-1-methyl-pyrimidine-2,4-dione], the IC50 was under 1000 nM.

Consider `Cc1cc(Cl)cc(-c2ccnc3cc(Cn4c(=O)ccn(C)c4=O)sc23)c1O[C@@H]1CCN[C@@H](C)C1` [Example 495, 3-[[7-[5-chloro-3-methyl-2-[[(2S,4R)-2-methyl-4-piperidyl]oxy]phenyl]thieno[3,2-b]pyridin-2-yl]methyl]-1-methyl-pyrimidine-2,4-dione], for which the IC50 was under 1000 nM.

Regarding `Cc1cc(Cl)cc(-c2ccnc3cc(Cn4c(=O)ccn(C)c4=O)sc23)c1O[C@@H]1CNC[C@@H](F)C1` [Example 496, 3-[[7-[5-chloro-2-[[(3S,5S)-5-fluoro-3-piperidyl]oxy]-3-methyl-phenyl]thieno[3,2-b]pyridin-2-yl]methyl]-1-methyl-pyrimidine-2,4-dione], the IC50 is under 1000 nM.

Turning to `Cc1cc(Cl)cc(-c2ccnc3cc(Cn4c(=O)ccn(C)c4=O)sc23)c1O[C@@H]1CNC[C@H](F)C1` [Example 497, 3-[[7-[5-chloro-2-[[(3S,5R)-5-fluoro-3-piperidyl]oxy]-3-methyl-phenyl]thieno[3,2-b]pyridin-2-yl]methyl]-1-methyl-pyrimidine-2,4-dione], the IC50 is under 1000 nM.

Consider `Cn1ccc(=O)n(Cc2cc3nccc(-c4cc(Cl)cc(C(F)F)c4O[C@H]4CCCNC4)c3s2)c1=O` [Example 498, 3-[[7-[5-chloro-3-(difluoromethyl)-2-[[(3S)-3-piperidyl]oxy]phenyl]thieno[3,2-b]pyridin-2-yl]methyl]-1-methyl-pyrimidine-2,4-dione], for which the IC50 was under 1000 nM.

Consider `Cc1cc(C(F)F)cc(-c2ccnc3cc(Cn4c(=O)ccn(C)c4=O)sc23)c1O[C@H]1CCCNC1` [Example 499, 3-[[7-[5-(difluoromethyl)-3-methyl-2-[[(3S)-3-piperidyl]oxy]phenyl]thieno[3,2-b]pyridin-2-yl]methyl]-1-methyl-pyrimidine-2,4-dione], for which the IC50 was under 1000 nM.

In the case of `Cc1cc(Cl)cc(-c2ccnc3cc(Cn4c(=O)ccn(C)c4=O)sc23)c1O[C@@H]1CNC[C@@H](O)C1` [Example 500, 3-[[7-[5-chloro-2-[[(3S,5S)-5-hydroxy-3-piperidyl]oxy]-3-methyl-phenyl]thieno[3,2-b]pyridin-2-yl]methyl]-1-methyl-pyrimidine-2,4-dione], the IC50 was under 1000 nM.

As to `Cc1cc(Cl)cc(-c2ccnc3cc(Cn4c(=O)ccn(C)c4=O)sc23)c1O[C@@H]1C[C@H]2COCCN2C1` [Example 501, 3-[[7-[2-[[(7R,8aS)-3,4,6,7,8,8a-hexahydro-1H-pyrrolo[2,1-c][1,4]oxazin-7-yl]oxy]-5-chloro-3-methyl-phenyl]thieno[3,2-b]pyridin-2-yl]methyl]-1-methyl-pyrimidine-2,4-dione], the IC50 is under 1000 nM.

Turning to `Cc1cc(Cl)cc(-c2ccnc3cc(Cn4c(=O)ccn(C)c4=O)sc23)c1O[C@@H]1C[C@@H]2COCCN2C1` [Example 502, 3-[[7-[2-[[(7R,8aR)-3,4,6,7,8,8a-hexahydro-1H-pyrrolo[2,1-c][1,4]oxazin-7-yl]oxy]-5-chloro-3-methyl-phenyl]thieno[3,2-b]pyridin-2-yl]methyl]-1-methyl-pyrimidine-2,4-dione], the concentration for half-maximal inhibition (IC50) was under 1000 nM.

On to `Cc1cc(Cl)cc(-c2ccnc3cc(Cn4c(=O)ccn(C)c4=O)sc23)c1OC1CCCN(C)C1` (centres unmarked) [Example 503, 3-[[7-[5-chloro-3-methyl-2-[(1-methyl-3-piperidyl)oxy]phenyl]thieno[3,2-b]pyridin-2-yl]methyl]-1-methyl-pyrimidine-2,4-dione], for which the IC50 was under 1000 nM.

Consider `CCN1CCCC(Oc2c(C)cc(Cl)cc2-c2ccnc3cc(Cn4c(=O)ccn(C)c4=O)sc23)C1` (centres unmarked) [Example 504, 3-[[7-[5-chloro-2-[(1-ethyl-3-piperidyl)oxy]-3-methyl-phenyl]thieno[3,2-b]pyridin-2-yl]methyl]-1-methyl-pyrimidine-2,4-dione], for which the IC50 is under 1000 nM.

Consider `Cc1cc(Cl)cc(-c2ccnc3cc(Cn4c(=O)ccn(C)c4=O)sc23)c1OC1CCCN(C(C)C)C1` (centres unmarked) [Example 505, 3-[[7-[5-chloro-2-[(1-isopropyl-3-piperidyl)oxy]-3-methyl-phenyl]thieno[3,2-b]pyridin-2-yl]methyl]-1-methyl-pyrimidine-2,4-dione], for which the IC50 is under 1000 nM.

In the case of `Cc1cc(Cl)cc(-c2ccnc3cc(Cn4c(=O)ccn(C)c4=O)sc23)c1OC1CCCN(CCO)C1` (centres unmarked) [Example 506, 3-[[7-[5-chloro-2-[[1-(2-hydroxyethyl)-3-piperidyl]oxy]-3-methyl-phenyl]thieno[3,2-b]pyridin-2-yl]methyl]-1-methyl-pyrimidine-2,4-dione], the IC50 is under 1000 nM.

For `Cc1cc(Cl)cc(-c2ccnc3cc(Cn4c(=O)ccn(C)c4=O)sc23)c1OC1CCCN(CCC(F)(F)F)C1` (centres unmarked) [Example 507, 3-[[7-[5-chloro-3-methyl-2-[[1-(3,3,3-trifluoropropyl)-3-piperidyl]oxy]phenyl]thieno[3,2-b]pyridin-2-yl]methyl]-1-methyl-pyrimidine-2,4-dione], the IC50 is under 1000 nM.

Regarding `Cc1cc(Cl)cc(-c2ncnc3cc(Cn4c(=O)ccn(C(C)C)c4=O)sc23)c1O[C@@H]1CCNC[C@@H]1C` [Example 508, 3-[[4-[5-chloro-3-methyl-2-[[(3S,4R)-3-methyl-4-piperidyl]oxy]phenyl]thieno[3,2-d]pyrimidin-6-yl]methyl]-1-isopropyl-pyrimidine-2,4-dione], the IC50 is under 1000 nM.

Regarding `Cc1cc(Cl)cc(-c2ncnc3cc(Cn4c(=O)ccn(C(C)C)c4=O)sc23)c1OC1CC2CNC1C2` (centres unmarked) [Example 509, 3-[[4-[2-(3-azabicyclo[2.2.1]heptan-5-yloxy)-5-chloro-3-methyl-phenyl]thieno[3,2-d]pyrimidin-6-yl]methyl]-1-isopropyl-pyrimidine-2,4-dione], the IC50 was under 1000 nM.

Consider `Cc1cc(Cl)cc(-c2ncnc3cc(Cn4c(=O)ccn(C(C)C)c4=O)sc23)c1O[C@@H]1CCN(C)C[C@@H]1C` [Example 510, 3-[[4-[5-chloro-2-[[(3S,4R)-1,3-dimethyl-4-piperidyl]oxy]-3-methyl-phenyl]thieno[3,2-d]pyrimidin-6-yl]methyl]-1-isopropyl-pyrimidine-2,4-dione], for which the IC50 is under 1000 nM.

Take `Cc1cc(Cl)cc(-c2ccnc3cc(Cn4c(=O)ccn(C(C)C)c4=O)sc23)c1O[C@H]1CCC2NCCO[C@H]21` (stereo partly drawn) [Example 511, 4-[[7-[2-[[(7S,7aR)-2,3,4,4a,5,6,7,7a-octahydrocyclopenta[b][1,4]oxazin-7-yl]oxy]-5-chloro-3-methyl-phenyl]thieno[3,2-b]pyridin-2-yl]methyl]-1-isopropyl-pyrimidine-2,4-dione]: the IC50 was under 1000 nM.

Take `Cc1cc(Cl)cc(-c2ncnc3cc(Cn4c(=O)ccn(C(C)C)c4=O)sc23)c1O[C@H]1CCCN(C)C1` [Example 512, 3-[[4-[5-chloro-3-methyl-2-[[(3S)-1-methyl-3-piperidyl]oxy]phenyl]thieno[3,2-d]pyrimidin-6-yl]methyl]-1-isopropyl-pyrimidine-2,4-dione]: the IC50 was under 1000 nM.

For the compound `Cc1cc(Cl)cc(-c2ncnc3cc(Cn4c(=O)ccn(C(C)C)c4=O)sc23)c1O[C@H]1CCCN(C(C)C)C1` [Example 513, 3-[[4-[5-chloro-2-[[(3S)-1-isopropyl-3-piperidyl]oxy]-3-methyl-phenyl]thieno[3,2-d]pyrimidin-6-yl]methyl]-1-isopropyl-pyrimidine-2,4-dione], the IC50 was under 1000 nM.

The values above are taken from patent US10722514B2 (FLX Bio, Inc., priority 2017, dated 2020).
